{"source": "patent US20050015823A1", "about": "“Screening methods employing fish model assessment of vision” (priority 2001, published 2005)", "key": {"[1]": {"details": "mouse, in vivo; cited from earlier work"}, "fish": {"system": "fish", "assay": "treatment of model fish with test substances (drugs arrayed alone or in combination in the water/wells)", "format": "in vivo", "details": "monotherapy", "from_the_text": "Fish may be contacted with a test substance, it may be touched or rubbed on their surface or injected into them. A test substance may be added to water in which they are. […] There may be one or multiple fish in each well exposed to the test substance. The test substance may be added prior to the onset of the disease phenotype, concurrent with the onset of the disease phenotype, or subsequent to the onset of the disease phenotype. The same test substance may be added to different wells at different concentration. For example, test substance 1 may be added to well A1 at a concentration of 1 mM, to well A2 at a concentration of 100 uM, to well A3 at a concentration of 10 uM, to well A4 at a concentration of 1 uM and to well A5 at a concentration of 0.1 uM. Then test substance 2 to well B1 etc. The panel of test substances may be known drugs or new chemical entities.\nAdditionally, the test substances may be added in combination. For example, well A2 may contain test substance 1 ‘and 2, well A3 test substance 1 and 3, well B2 test substance 2 and 3. Alternatively, every well may contain test substance x, with individual wells containing a panel of additional test substances.\nIn other options, a population of fish in a petri dish or a tank may be employed and treated together, e.g. via addition of one or more or a combination of test substances in the water. […]"}}}
{"smiles": "C[C@H]1c2cccc(O)c2C(=O)C2=C(O)[C@]3(O)C(=O)C(C(N)=O)=C(O)[C@@H](N(C)C)[C@@H]3[C@@H](O)[C@@H]21", "note": "[Doxycycline, doxycycline]", "values": [{"measurement": "toxicity", "setting": "[1]", "result": "no apparent toxicity"}]}
{"smiles": "CN1C(=O)CN=C(c2ccccc2)c2cc(Cl)ccc21", "note": "[diazepam]", "values": [{"measurement": "concentration showing therapeutic effects", "setting": "fish", "result": 35, "unit": "µM"}]}
